Measurements published in patent US12544421B2, “VDAC inhibitors for treating inflammatory bowel diseases” (THE NATIONAL INSTITUTE FOR BIOTECHNOLOGY IN THE NEGEV LTD., priority 2018, dated 2026).

What was measured:
[1] = tested on: colon of DSS-induced IBD mice; assay: Histological sections of colon of DSS-induced IBD mice (H&E, anti-VDAC1 immunostaining); type: in vivo, C57BL/6 mice
Text: FIGS. 6A-6D are micrographs of histological sections of DSS-induced IBD in C57BL/6 mice, stained with hematoxylin and eosin (H&E). Scale bar represents 100 μm. (6A) Control; (6B) 2.5% DSS; (6C) DSS+VBIT-4; and (6D) DSS+VBIT-12.
FIGS. 7A-7D are micrographs of histological sections of DSS-induced IBD in C57BL/6 mice highlighting the effects of VBIT-4 and VIBT-12 on the colon wall thickness and lymphatic infiltration thereto. (7A) Control; (7B) 2.5% DSS; (7C) DSS+VBIT-12; and […] DSS+VBIT-4.
FIGS. 8A-8D are micrographs of histological sections of DSS-induced IBD in C57BL/6 mice, immunostained with an anti VDAC-1 specific antibody. (8A) Control; (8B) 2.5% DSS; (8C) 2.5% DSS+VBIT-4; and (8D) 2.5% DSS+VBIT-12.
IBD colons were also found to contain large lymphatic sacks and also experienced high infiltration of inflammatory cells towards the colonic lumen.

DSS-induced IBD mice [2] = assay: Dextran sodium sulfate (DSS)-induced colitis / IBD mouse model: weight, survival, colon and cecum length, clinical score, spleen weight; type: in vivo, C57BL/6 mice
Text: Healthy female, specific pathogen free (SPF) C57BL/6 (H-2b), 6-7 weeks old mice were obtained from Invigo, Israel. Animal housing and care conditions was maintained according to the experimental protocols approved by the Institutional Animal Care and Use Committee. Mice were weighed and examined for health.
Animals were provided ad libitum a commercial rodent diet, and free access to either regular or DSS-containing drinking water for the respective designated test groups, supplied to each cage via polyethylene bottles with stainless steel sipper tubes.
Dextran sodium sulfate (DSS)-induced colitis was used.
All animals were subjected to experimental Colitis induction by providing DSS in the drinking water, continuously supplied ad libitum for 6 days, followed subsequently by 8 days of regular drinking water until study termination on day 14 (FIG. 1A).
Determination of individual body weights of mice was performed before disease induction and thereafter once daily, starting from study day 0 until the time of scheduled euthanasia of survivors on Day 14.
Animals were observed, and clinical signs recorded once daily starting from study day 1 and onwards until the time of scheduled euthanasia. Evaluation of clinical signs was scored according to the grading system listed below.
Immediately after euthanasia, the entire large intestine from the ileo-caecal junction to the anus were removed, weighed and the length of the colon was measured using a ruler.
The Maximal Scores of all mice in each group was be summed, and the MMS calculation was as follows: […]
The mean colon length of each group was calculated, and the percentage of shortening of the colon was calculated as follows: […]
The mean caecum length of each group was calculated, and the percentage of shortening of caecum was calculated as follows: […]

DSS-induced IBD mice [3] = assay: as above; type: in vivo, C57BL/6 mice; remark: listed apart in the source
CT-26 cells and MEFs = assay: H2O2-induced mtDNA release from cells in culture; type: cell-based, mouse; conditions: 20 μM compound, 100 or 200 μM H2O2, 20 h, CT-26 and MEFs
Description: Murine colorectal carcinoma cell line from a BALB/c mouse (CT26) and mouse embryonic fibroblast (MEF) cell lines were grown at 37° C. under an atmosphere of 95% air and 5% CO2 in DMEM supplemented with 10% FBS, 2 mM L-glutamine, 1,000 U/ml penicillin and 1 mg/ml streptomycin.
Cells were seeded (150,000 cells/well) in 6-well culture dishes to 40-60% confluence. After 24 h cells were incubated for 20 h with 100 or 200 μM of H2O2 in the absence or the presence of VBIT-4 and VBIT-12. Cells washed and subjected to mtDNA release as described below. For VDAC1 silencing, CT-26 cells were seeded (150,000 cells/well) in 6-well culture dishes to 40-60% confluence. After 24 h cells were transfected with 75 nM of non-targeting siRNA (si-NT) or siRNA targeting VDAC1 recognizing both human and mouse VDAC1 (si-m/hVDAC1) using the JetPRIME transfection reagent, according to the manufacturers' instructions. Forty-eight (48) h post-transfection with either si-NT or si-m/hVDAC1, cells were incubated for 20 h with 100 μM of H2O2. Cells washed and subject to mtDNA release as described below.
Cells (e.g., CT-26, MFFs) were re-suspended in 170 μl digitonin buffer containing 150 mM NaCl, 50 mM HEPES pH 7.4, and 25 μg/ml digitonin (EMD Millipore Corp). The homogenates are incubated on a rotator for 10 min at room temperature, followed by centrifugation at 16,000 g for 25 min at 4° C. […]

[4] = DSS-induced IBD mice, 20 mg/kg, n=6
[5] = DSS-induced IBD mice, 20 mg/kg, value before the brackets
[6] = DSS-induced IBD mice, 20 mg/kg, value in brackets

O=C(CC(CO)N1CCN(c2ccc(OC(F)(F)F)cc2)CC1)Nc1ccc(Cl)cc1 (centres unmarked) [VBIT-4, N-(4-chlorophenyl)-4-hydroxy-3-(4-(4-(trifluoromethoxy)phenyl)-piperazin-1-yl)butanamide]
Colon histology: inflammatory cells and infiltration ([1]; compared to IBD mice): fewer inflammatory cells with reduced/no infiltration activity
Colon histology: colon wall thickness / villi ([1]; compared to IBD mice and non-IBD control): thinner colon walls
% Mortality (DSS-induced IBD mice [2]; 2.5% DSS, 20 mg/kg, n=6): 33.3%
died (number of mice) (DSS-induced IBD mice [2]; 2.5% DSS, 20 mg/kg, n=6): 2
Body weight at experiment termination versus DSS-induced IBD mice (in words) (DSS-induced IBD mice [2]; DSS-induced IBD mice): higher weights
Survival rate at experiment termination versus DSS-induced IBD mice (in words) (DSS-induced IBD mice [2]; DSS-induced IBD mice): increased survival rates
Cecum length, mm (DSS-induced IBD mice [2]; [4]): 8.7 ± 2.4 mm
MMS (mean maximal score; stool consistency and rectal bleeding, 0-5) (DSS-induced IBD mice [2]; [4]): 3.05 ± 0.55
Colon length, mm (DSS-induced IBD mice [2]; DSS-induced IBD mice, 20 mg/kg, n=6, at termination): 48.00 ± 4.84 mm
Change of weight, day 1 to day 8 (absolute) (DSS-induced IBD mice [2]; [5]): −3.2 gr
Change of weight, day 8 to day 15 (absolute) (DSS-induced IBD mice [2]; [5]): 1.7 gr
Change (%) of weight, day 1 to day 8 (DSS-induced IBD mice [2]; [6]): −20.8%
Colon, % Shortening relative to the DSS-induced control (=100) (DSS-induced IBD mice [2]; [6]): 73%
Cecum, % Shortening (DSS-induced IBD mice [2]; DSS-induced IBD mice, 20 mg/kg, versus naive): 33.1%
Colon, % Shortening (DSS-induced IBD mice [2]; DSS-induced IBD mice, 20 mg/kg, versus naive, value before the brackets): 26.2%
Weight (gr) day 1 (DSS-induced IBD mice [2]; DSS-induced IBD mice, compound 20 mg/kg, day 1): 15.4 gr
Weight (gr) day 8 (DSS-induced IBD mice [2]; DSS-induced IBD mice, compound 20 mg/kg, day 8): 12.2 gr
Change (%) of weight, day 8 to day 15 (DSS-induced IBD mice [3]; 20 mg/kg, value in brackets): 13.9%
Weight (gr) day 15 (DSS-induced IBD mice [3]; compound 20 mg/kg, day 15): 13.9 gr
Release of mtDNA from cells induced by H2O2 (CT-26 cells and MEFs): inhibited
